{"source": "patent US9629830B2", "about": "“EphA4 inhibitors as neuroprotective agents” (The Hong Kong University of Science and Technology, priority 2013, dated 2017)", "key": {"[1]": {"test_system": "APP/PS1 mutant mice", "test": "HFS-induced hippocampal LTP in WT and APP/PS1 mice after in vivo treatment", "parameters": "species or system mouse", "details": "Rhy oral 50 mg·kg−1·day−1 for 3 weeks", "excerpt": "APP/PS1 double-transgenic mice were obtained from Jackson Laboratory (B6C3-Tg[APPswe, PSEN1dE9]85Dbo/J)^66. These mice were generated by incorporating a human/murine APP construct bearing the Swedish double mutation and the exon-9-deleted PSEN1 mutation (APPswe+PSEN1/dE9). APP transgenic mice (Tg2576) expressing a double mutant of human AβPP (Lys^670→Asn^670, Met^671→Leu^671) were also used^31. Both sexes were used for experiments, and all mice used in this study were produced by the Animal Care Facility of The Hong Kong University of Science and Technology. The genotype was confirmed by polymerase chain reaction analysis of tail biopsies. Four to five mice of the same sex were housed in a cage with food and water ad libitum with a 12-hour light/dark cycle.\nTo investigate the effect of blocking EphA4 signaling by KYL peptide in AD mice, 4-5-month-old AD transgenic mice were implanted with Alzet mini-osmotic pumps, model 1004, pumping its contents at 0.11 μL/h for 28 days. Pumps were loaded with either 0.23 μg/μL KYL peptide (17 μg) or vehicle solvent in artificial cerebrospinal fluid (CSF). The mini-osmotic pumps were adjusted intracerebroventricularly in the right hemisphere. EphA4 in the CA1 regions of APP/PS1 mice was knocked down by injecting vesicular stomatitis virus glycoprotein G-pseudotyped lentiviral particles with pFUGW-shEphA4 bilaterally into the corresponding regions as described previously^58.\nFor LTP recordings, mouse brains were immediately dissected after sacrifice and soaked in ice-cold 95% O2/5% CO2 (aCSF)^58. Brain slices (300 μm thick) were prepared using a vibrating tissue slicer (HM650V; Thermo), and soaked in oxygenated buffer for 2 h at 32° C. […] For treatment with EphA4 inhibitors, the slices were pretreated with peptides or chemicals for 1 h before application of Aβ. fEPSPs were recorded using a MED64 multichannel recording system, and the data were collected from the dendritic layer of area CA1 at a sampling rate of 10 kHz. For each slice, the baseline stimulus intensity was set at the level that elicited ˜50% of the maximum fEPSP response determined according to the input-output curve. […] The magnitude of LTP was quantified as a percentage change in the fEPSP slope (10%-90%) taken during the 60-min interval after LTP induction.\nWT and APP/PS1 mutant (Tg) mice were orally administered with corylin ([…]) by daily gavage for 3-4 weeks prior to LTP measurements. LTP induced by 3 trains of HFS (100 Hz for 1 s delivered 30 s apart) in the CA1 region of the SC pathway of the hippocampus was measured. The magnitude of LTP was quantified as the percentage change in the fEPSP slope (10-90%) taken during the 60-min interval after LTP induction."}, "[2]": {"test_system": "APP/PS1 mice", "test": "Amyloid plaque deposition and microglial activation in APP/PS1 mice (immunohistochemistry)", "assay_type": "in vivo, mouse", "procedure": "For immunohistochemical analysis, mice were anesthetised, transcardially perfused with saline followed by 4% paraformaldehyde (pH 7.4), and the brains were removed^66. After overnight postfixation and a series of cryoprotection, the brains were coronally sectioned at a thickness of 20 μm using a cryostat (Microm HM 560, Thermo Scientific). The sections were stained with β-amyloid (1:200) and Iba1 (1:500) antibodies overnight at 4° C., followed by incubation with appropriate fluorescence-conjugated secondary antibodies and mounted in Hydromount (National diagnostics). Images were taken with a Leica DMRA microscope. For 3,3-diaminobenzidine (DAB) staining, the sections were rehydrated and subjected to antigen retrieval. […]\nImages from the same experiment were obtained using identical acquisition settings, and images were analyzed with Metamorph software (Meta Image Series 7.5, Universal Imaging Corp.)^24,58. For quantifying the EphA4 and PSD-95 clusters, two dendrite segments from each neuron were analyzed for quantification. […] The basal threshold values for the background of all images in each experiment were measured. […] To measure the density of clusters in dendrites, the images were first thresholded to include the clusters with intensity 2-fold greater than the signal of an adjacent dendrite, and the total number of clusters and dendrite length were measured automatically. […]"}, "[3]": {"test_system": "NMDA receptors", "test": "NMDA current in hippocampal neurons", "assay_type": "cell-based", "details": "data not shown"}}, "data": [{"compound": "CC[C@H]1CN2CC[C@]3(C(=O)Nc4ccccc43)[C@@H]2C[C@@H]1/C(=C\\OC)C(=O)OC", "note": "[Rhy, methyl (7β,16E,20α)-16-(methoxymethylene)-2-oxocorynoxan-17-oate]", "values": [{"measurement": "mean fEPSP slope, last 10 min after LTP induction", "setting": "[1]; APP/PS1 (Tg) mice, Tg control 147.6±3.5%", "result": "198.1±8.9", "unit": "%"}, {"measurement": "mean fEPSP slope, last 10 min after LTP induction", "setting": "[1]; WT mice, WT control 194.0±7.0%", "result": "180.5±7.7", "unit": "%"}, {"measurement": "amyloid plaques in cortex and hippocampus", "setting": "[2]; APP/PS1 mice, 10-week administration of Rhy versus water", "result": "number and total area of amyloid plaques decreased significantly"}, {"measurement": "plaque-associated reactive microglia, Iba1 staining", "setting": "[2]; cortex of APP/PS1 mice administered with Rhy", "result": "significant reduction of plaque-associated reactive microglia"}, {"measurement": "inhibition of NMDA current in hippocampal neurons", "setting": "[3]", "result": "unable to inhibit NMDA current"}]}]}
